Consider twelve molecules from article PMC6037852, “Design of Diarylheptanoid Derivatives as Dual Inhibitors Against Class IIa Histone Deacetylase and β-amyloid Aggregation” (Frontiers in Pharmacology, 2018).

The test system of one experiment is HeLa nuclear HDACs. Kind of experiment: HDAC fluorometric activity assay, HeLa nuclear extract. The settings on record: read-out: IC50 HeLa Nuclear HDACs; Boc-Lys(Ac)-AMC 10 μM.
Another experiment deals with T1, Aβ1-42 (Homo sapiens, UniProt P05067).
T1 construct: Aβ1-42 peptides were purchased from Kelowna International Scientific Inc; purchased Kelowna International Scientific Inc
Kind of experiment: Inhibition of Aβ1-42 self-aggregation, thioflavin-T (ThT) fluorescence assay. In kind it is biochemical. To be noted: 24 h; for IC50: read-out: Beta-Amyloid Aggregation IC50; for inhibition at 10 µM: single concentration of 10 μM, read-out: Beta-Amyloid Aggregation Inhibition (%). The method, then: Inhibition of Aβ1-42 self-aggregation was measured by thioflavin-T (ThT) fluorescence assay ([Hudson et al., 2009]). Aβ1-42 peptides were purchased from Kelowna International Scientific Inc. To avoid Aβ1-42 self-aggregation before the start of the experiment, Aβ1-42 peptides were dissolved in hexafluoroisopropanol (HFIP) to a concentration of 1 mM. The clear solution containing the dissolved peptide was then aliquoted in micro centrifuge tube. The solution was evaporated under vacuum to remove HFIP to give monomeric Aβ1-42. The monomeric Aβ1-42 was dissolved in NaOH(aq) (60 mM) to give a stock solution (1 mM). The Aβ1-42 stock solution was diluted with 50 mM phosphate buffer (containing 0.15 M NaCl, pH 7.4) before use. Fresh ThT stock solution was prepared by dissolving ThT (Sigma, T3516) in phosphate buffer and filtrated through […] Nylon syringe filter. The ThT stock solution and 400 mM ethylenediaminetetraacetic acid (EDTA) were diluted into the phosphate buffer to generate the working solution as background. A mixture of working solution (ThT final concentration: 10 μM), Aβ1-42 stock solution (Aβ1-42 final concentration: 10 μM) and the tested compounds were incubated on BioShake iQ ThermoMixer (37°C, 700 rpm) for 24 h. Fluorescence was measured by Victor 2X microplate spectrophotometer (excitation λ = 440 nm, emission λ = 486 nm), and adapted for 96-well microtiter plates. The fluorescence intensities were recorded and the percent inhibition due to the presence of the inhibitors were calculated by the following formula: (1 - IFi/IFc) × 100% where IFi and IFc were the fluorescence intensities obtained for Aβ1-42 in the presence and in the absence of inhibitors after subtracting the background, respectively. The IC50 values were calculated by the linear regression model of the data. All experiments were performed in triplicate.

The next experiment concerns the target HDAC5 (Homo sapiens, UniProt Q9UQL6). Kind of experiment: HDAC fluorometric activity assay, HDAC5. To be noted: IC50 Class IIa HDAC5, fluorogenic HDAC class IIa substrate 10 μM.
The target of another experiment is HDAC9 (Homo sapiens, UniProt Q9UKV0). Kind of experiment: HDAC fluorometric activity assay, HDAC9.
Another experiment addresses T2, HDAC7 (Homo sapiens, UniProt Q8WUI4).
T2 sequence (Q8WUI4 1-952): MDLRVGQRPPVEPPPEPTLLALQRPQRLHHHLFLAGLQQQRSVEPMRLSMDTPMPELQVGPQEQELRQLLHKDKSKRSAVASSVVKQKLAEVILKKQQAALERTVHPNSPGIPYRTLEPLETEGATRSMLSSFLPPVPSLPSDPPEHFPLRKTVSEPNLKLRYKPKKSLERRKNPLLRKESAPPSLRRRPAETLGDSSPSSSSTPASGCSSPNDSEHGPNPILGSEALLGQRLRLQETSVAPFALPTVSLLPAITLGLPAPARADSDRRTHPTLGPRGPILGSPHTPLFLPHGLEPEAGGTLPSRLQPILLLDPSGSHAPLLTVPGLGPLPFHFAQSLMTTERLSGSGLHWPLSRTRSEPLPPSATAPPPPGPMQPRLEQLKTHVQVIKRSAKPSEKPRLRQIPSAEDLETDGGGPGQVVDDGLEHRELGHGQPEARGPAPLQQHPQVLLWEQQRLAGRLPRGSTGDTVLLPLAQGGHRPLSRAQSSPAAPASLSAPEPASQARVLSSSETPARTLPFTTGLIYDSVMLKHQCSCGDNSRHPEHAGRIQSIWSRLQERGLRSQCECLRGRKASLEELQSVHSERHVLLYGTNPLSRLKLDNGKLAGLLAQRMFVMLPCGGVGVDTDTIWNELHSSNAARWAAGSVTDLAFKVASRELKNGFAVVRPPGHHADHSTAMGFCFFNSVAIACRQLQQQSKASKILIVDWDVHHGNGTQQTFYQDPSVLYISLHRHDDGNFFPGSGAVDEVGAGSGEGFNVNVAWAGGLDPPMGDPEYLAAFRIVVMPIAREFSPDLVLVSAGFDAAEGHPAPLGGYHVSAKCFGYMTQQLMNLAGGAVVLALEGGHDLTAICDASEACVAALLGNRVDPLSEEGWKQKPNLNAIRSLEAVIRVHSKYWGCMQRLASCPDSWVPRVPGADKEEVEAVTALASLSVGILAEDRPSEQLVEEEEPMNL
Kind of experiment: HDAC fluorometric activity assay, HDAC7. To be noted: IC50 Class IIa HDAC7, fluorogenic HDAC class IIa substrate 10 μM.

The next experiment addresses T3, HDAC4 (Homo sapiens, UniProt P56524).
T3 construct: Genes encoding HDAC4 (residues 648–1057) flanked with NdeI and EcoRI sites; made in house; host or cells: E. coli BL21(DE3)
Kind of experiment: HDAC fluorometric activity assay, HDAC4. The format is biochemical. The settings on record: Boc-Lys(TFA)-AMC 10 μM; read-out: IC50 Class IIa HDAC4. The protocol:
Proteins were expressed in BL21(DE3) cells by overnight induction with IPTG (1 mM) at 20–25°C and purified from cleared cell lysates by sequential chromatography on Ni-Sepharose 6 fast flow, Mono Q 5/50 GL, and Superdex 75 10/300 GL columns (GE Healthcare). Protein concentrations were quantified with Bradford Reagent (Bio-Rad).
Enzyme, inhibitors and substrate were diluted with HDAC buffer (15 mM Tris-HCl pH 8.1, 0.25 mM EDTA, 250 mM NaCl, 10% v:v glycerol). Briefly, 10 μL diluted HDAC, i.e., HeLa nuclear extract (Enzo), HDAC6 (BPS), HDAC4, HDAC5 (BPS), HDAC7 (BPS) and HDAC9 (BPS), as well as 50 μL of testing compounds at different concentrations were added to each well of a 96-well microtiter plate and pre-incubated at 30°C for 5 min. […] The fluorescence in wells without test compounds (0.1% DMSO, negative control) was set as 100% enzymatic activity and the fluorescence in wells with enzyme eliminated was set as 0% enzymatic activity. The fluorescence ratio of test compounds to negative control was defined as percentage of remaining enzyme activity. The IC50 values were calculated by linear regression of the data. All experiments were performed in triplicate.

Each structure is given as a SMILES string. A value given as a limit tells only on which side of the number the result lay.

HDAC5, sequence (Q9UQL6 whole entry): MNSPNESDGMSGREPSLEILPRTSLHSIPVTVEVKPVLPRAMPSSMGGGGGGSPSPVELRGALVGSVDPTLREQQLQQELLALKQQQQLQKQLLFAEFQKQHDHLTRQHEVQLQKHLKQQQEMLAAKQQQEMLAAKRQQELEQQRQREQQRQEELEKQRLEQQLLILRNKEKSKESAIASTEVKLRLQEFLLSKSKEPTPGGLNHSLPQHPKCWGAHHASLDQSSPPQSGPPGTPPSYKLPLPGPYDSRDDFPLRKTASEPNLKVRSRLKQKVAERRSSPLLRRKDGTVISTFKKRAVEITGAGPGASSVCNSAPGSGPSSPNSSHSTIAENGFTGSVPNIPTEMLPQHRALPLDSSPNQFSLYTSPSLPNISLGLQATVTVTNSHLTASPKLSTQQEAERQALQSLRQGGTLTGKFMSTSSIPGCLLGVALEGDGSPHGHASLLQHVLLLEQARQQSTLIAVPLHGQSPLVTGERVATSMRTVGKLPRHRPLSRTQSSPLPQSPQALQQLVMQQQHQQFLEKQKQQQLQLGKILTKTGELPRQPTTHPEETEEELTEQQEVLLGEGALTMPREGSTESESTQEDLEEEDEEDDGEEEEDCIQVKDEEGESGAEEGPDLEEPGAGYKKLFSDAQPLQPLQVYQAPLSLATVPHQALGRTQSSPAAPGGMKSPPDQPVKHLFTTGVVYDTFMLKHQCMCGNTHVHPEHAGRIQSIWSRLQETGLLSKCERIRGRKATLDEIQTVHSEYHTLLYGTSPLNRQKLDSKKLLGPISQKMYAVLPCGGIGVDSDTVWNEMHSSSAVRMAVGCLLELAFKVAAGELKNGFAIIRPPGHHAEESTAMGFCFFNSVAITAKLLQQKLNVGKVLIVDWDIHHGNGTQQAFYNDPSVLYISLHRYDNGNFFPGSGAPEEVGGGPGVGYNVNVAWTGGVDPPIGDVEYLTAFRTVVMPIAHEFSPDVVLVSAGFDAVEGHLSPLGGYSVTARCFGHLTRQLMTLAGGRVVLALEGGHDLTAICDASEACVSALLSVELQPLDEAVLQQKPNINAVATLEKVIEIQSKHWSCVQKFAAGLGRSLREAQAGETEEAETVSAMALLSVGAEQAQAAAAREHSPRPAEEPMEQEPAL
T3 sequence (P56524 648-1057): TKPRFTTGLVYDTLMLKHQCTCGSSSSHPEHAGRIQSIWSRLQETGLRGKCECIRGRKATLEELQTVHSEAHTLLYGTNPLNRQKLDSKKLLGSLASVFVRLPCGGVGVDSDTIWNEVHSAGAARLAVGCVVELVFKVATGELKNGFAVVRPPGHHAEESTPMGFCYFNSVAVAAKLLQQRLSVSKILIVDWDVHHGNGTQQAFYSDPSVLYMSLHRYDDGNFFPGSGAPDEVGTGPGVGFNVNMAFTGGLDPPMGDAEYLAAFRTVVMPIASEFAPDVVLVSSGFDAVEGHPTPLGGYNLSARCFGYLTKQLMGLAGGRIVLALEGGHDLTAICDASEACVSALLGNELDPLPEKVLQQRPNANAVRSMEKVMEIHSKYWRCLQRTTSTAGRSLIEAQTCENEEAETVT
HDAC9, sequence (Q9UKV0 whole entry): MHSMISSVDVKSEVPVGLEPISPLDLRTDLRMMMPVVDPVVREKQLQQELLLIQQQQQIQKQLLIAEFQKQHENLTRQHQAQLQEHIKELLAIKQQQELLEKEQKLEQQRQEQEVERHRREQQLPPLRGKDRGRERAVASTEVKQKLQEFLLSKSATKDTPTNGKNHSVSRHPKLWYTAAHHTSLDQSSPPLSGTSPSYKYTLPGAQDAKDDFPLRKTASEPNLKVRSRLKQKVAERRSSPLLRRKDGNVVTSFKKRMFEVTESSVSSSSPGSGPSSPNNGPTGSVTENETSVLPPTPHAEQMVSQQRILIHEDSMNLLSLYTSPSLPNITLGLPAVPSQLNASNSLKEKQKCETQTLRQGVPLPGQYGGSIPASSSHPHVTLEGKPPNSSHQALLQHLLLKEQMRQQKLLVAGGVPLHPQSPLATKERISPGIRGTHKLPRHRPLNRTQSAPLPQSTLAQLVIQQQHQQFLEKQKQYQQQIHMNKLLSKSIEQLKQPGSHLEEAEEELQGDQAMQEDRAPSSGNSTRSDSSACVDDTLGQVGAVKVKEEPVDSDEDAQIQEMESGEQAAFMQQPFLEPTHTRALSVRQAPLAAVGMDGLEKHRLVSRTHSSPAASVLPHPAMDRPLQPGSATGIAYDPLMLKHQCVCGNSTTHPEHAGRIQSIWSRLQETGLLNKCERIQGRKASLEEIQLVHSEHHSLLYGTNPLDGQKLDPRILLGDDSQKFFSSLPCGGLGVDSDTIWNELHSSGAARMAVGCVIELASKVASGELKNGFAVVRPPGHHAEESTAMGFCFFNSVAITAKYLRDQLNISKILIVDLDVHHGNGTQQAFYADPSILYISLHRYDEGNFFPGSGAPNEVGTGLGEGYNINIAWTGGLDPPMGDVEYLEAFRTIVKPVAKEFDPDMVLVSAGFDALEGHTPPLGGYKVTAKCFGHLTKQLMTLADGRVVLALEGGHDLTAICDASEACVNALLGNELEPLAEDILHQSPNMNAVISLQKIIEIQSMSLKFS
T1 sequence (P05067 672-713 limits assumed): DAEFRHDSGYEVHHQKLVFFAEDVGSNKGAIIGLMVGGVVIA

In the case of `O=C(CCCCc1ccccc1)CCc1cccc(O)c1O` [Compound 5e], the IC50 – broadly, the point on the concentration scale where inhibition reaches its midpoint – was more than 40 µM with HeLa nuclear HDACs; 6 ± 0.9 µM on Aβ1-42; 4.8 ± 0.4 µM against HDAC5; 9.3 ± 0.8 µM on HDAC9; 8.7 ± 0.7 µM at HDAC7; 35.9 ± 0.1 µM on HDAC4. Moreover, the inhibition (usually the drop in the measured response relative to a control, in per cent) at 10 µM at Aβ1-42 stood at 65.9 ± 0.2%.
On to `COc1cc(/C=C/C(=O)CCCCc2ccccc2)ccc1O` [Compound 4k], for which the IC50 with HeLa nuclear HDACs was more than 40 µM; at Aβ1-42, more than 10 µM; against HDAC5, more than 40 µM; against HDAC9, more than 40 µM; at HDAC7, more than 40 µM; on HDAC4, more than 40 µM. The inhibition at 10 µM at Aβ1-42 stood at 23.1 ± 6.4%.
With `COc1cc(CCC(=O)CCCCc2ccccc2)ccc1O` [Compound 5i], the IC50 in the experiment on HeLa nuclear HDACs was more than 40 µM; at Aβ1-42, more than 10 µM; at HDAC5 it was more than 40 µM; against HDAC9, more than 40 µM; at HDAC7 it was more than 40 µM; on HDAC4, more than 40 µM. The inhibition at 10 µM at Aβ1-42 worked out at 4.6 ± 11.7%.
As to `O=C(/C=C/c1cc(O)c(O)c(O)c1)CCCCc1ccccc1` [Compound 4j], the IC50 is more than 40 µM with HeLa nuclear HDACs; 3.6 ± 1 µM on Aβ1-42; 7.1 ± 0.2 µM against HDAC5; 15.4 ± 1.8 µM at HDAC9; 3.8 ± 0.4 µM against HDAC7; more than 40 µM at HDAC4. The inhibition at 10 µM on Aβ1-42 is 78.7 ± 6.2%.
On to `O=C(/C=C/c1cccc(O)c1O)CCCCc1ccccc1` [Compound 4e], for which the IC50 with HeLa nuclear HDACs is more than 40 µM; on Aβ1-42 it was 3.4 ± 0.6 µM; at HDAC5, 14.6 ± 0.2 µM; on HDAC9, 18.1 ± 0.4 µM; against HDAC7, 8.6 ± 1 µM; at HDAC4, 38.8 ± 0.1 µM. Besides, the inhibition at 10 µM at Aβ1-42 turned out to be 91.7 ± 2.5%.
With `O=C(CCCCc1ccccc1)CCc1cccc(O)c1` [Compound 5d], the IC50 with HeLa nuclear HDACs is more than 40 µM; at Aβ1-42, more than 10 µM; against HDAC5 it was more than 40 µM; on HDAC9, more than 40 µM; at HDAC7, more than 40 µM; at HDAC4, more than 40 µM. Moreover, at Aβ1-42, the inhibition at 10 µM is -22.1 ± 2%.
For `O=C(/C=C/c1ccc(O)c(O)c1)CCCc1ccccc1` [Compound 7d], the IC50 with HeLa nuclear HDACs was more than 40 µM; on Aβ1-42, 3.1 ± 0.3 µM; at HDAC5, 12.6 ± 2.3 µM; at HDAC9, 17.3 ± 0.1 µM; against HDAC7 it was 9.4 ± 0.2 µM; at HDAC4 it was 35 ± 2.8 µM. The inhibition at 10 µM at Aβ1-42 worked out at 74 ± 9.5%.
As for `O=C(/C=C/c1ccc(O)c(O)c1)Cc1ccccc1` [Compound 7b], the IC50 in the experiment with HeLa nuclear HDACs is more than 40 µM; on Aβ1-42 it was 2.1 ± 0.2 µM; against HDAC5, 13.7 ± 0.8 µM; on HDAC9, 29.2 ± 1.7 µM; against HDAC7, 15.4 ± 3 µM; at HDAC4, 39.8 ± 0.2 µM. Also, the inhibition at 10 µM on Aβ1-42 came to 79.4 ± 2.6%.
As for `O=C(CCc1ccccc1)CCc1ccc(O)c(O)c1` [Compound 8c], the IC50 with HeLa nuclear HDACs is more than 40 µM; on Aβ1-42, 8 ± 1.6 µM; against HDAC5 it was 8.2 ± 0.1 µM; at HDAC9, 33.8 ± 3.8 µM; on HDAC7 it was 8.9 ± 0.4 µM; at HDAC4, more than 40 µM. In addition, the inhibition at 10 µM at Aβ1-42 was 71.3 ± 3.8%.
For the molecule `O=C(CCCCc1ccccc1)CCc1ccc(O)c(Cl)c1` [Compound 5g], the IC50 in the experiment on HeLa nuclear HDACs is more than 40 µM; at Aβ1-42 it was more than 10 µM; at HDAC5, more than 40 µM; against HDAC9, more than 40 µM; against HDAC7, 30.7 ± 0.7 µM; on HDAC4, 29.9 ± 2.3 µM. For the same molecule, the inhibition at 10 µM on Aβ1-42 is 17.8 ± 2.8%.
For the molecule `O=C(CCCCc1ccccc1)CCc1ccc(O)c(O)c1` [Compound 5c], the IC50 in the experiment with HeLa nuclear HDACs was more than 40 µM; on Aβ1-42, 5.8 ± 0.2 µM; on HDAC5, 3.8 ± 0.1 µM; at HDAC9, 5.3 ± 0.3 µM; on HDAC7, 4.3 ± 0.5 µM; at HDAC4, 18.1 ± 0.8 µM. Moreover, the inhibition at 10 µM on Aβ1-42 is 67.8 ± 3.4%.
For the molecule `O=C(/C=C/c1ccc(O)c([N+](=O)[O-])c1)CCCCc1ccccc1` [Compound 4i], the IC50 in the experiment on HeLa nuclear HDACs is more than 40 µM; at Aβ1-42 it was more than 10 µM; against HDAC5, 36.1 ± 3.7 µM; against HDAC9 it was more than 40 µM; at HDAC7, 32.7 ± 2.1 µM; at HDAC4, more than 40 µM. Further, the inhibition at 10 µM on Aβ1-42 worked out at 49 ± 2.9%.
